Source: patent US20070117743A1, “New antitumoral compounds” (priority 2003, published 2007)
Read-outs that look alike come from different tables or passages of the source. *1 amine or outer side, *2 acyl side, *3 side chain or, on linkers, in order; H or OH if unused. Where a SMILES comes first, the peptide text is derived from it. Bridges are numbered along the chain shown (N, C = ends). [ ]: non-standard residue; d: D form. The star is where a group is joined. X3 = CN(C)C(=NCCC[C@H](N[*:1])C(=O)[*:2])N(C)c1ccccc1; X2 = CN(C)C(=NCCC[C@H](N[*:1])C(=O)[*:2])N1CCCC1; X1 = CN(C)C(=NCCC[C@H](N[*:1])C(=O)[*:2])N(C)C; d(aIle) = CC[C@H](C)[C@@H](N)C(=O)O; d(aThr) = C[C@@H](O)[C@@H](N)C(=O)O; Hexanoyl(5-Me) = CC(C)CCCC(=O)*; Dhb = C/C=C(\N)C(=O)O

How the values were obtained:
Type in all cases: cell-based, human
A-549 = assay: SRB colorimetric assay of cell growth and viability, A-549; conditions: 48 hours exposure; for GI50: read-out: GI50 A-549; for CC50: read-out: LC50 A-549
Text: (§1) The finality of this assay is to interrupt the growth of a “in vitro” tumor cell culture by means a continued exhibition of the cells to the sample to be testing.
(§2) This form of the assay employs 96 well cell culture microplates of 9 mm diameter (Faircloth, 1988; Mosmann, 1983). Most of the cell lines are obtained from American Type Culture Collection (ATCC) derived from different human cancer types.
(§3) Cells are maintained in RPMI 1640 10% FBS, supplemented with 0.1 g/l penicillin and 0.1 g/l streptomycin sulfate and then incubated at 37° C., 5% CO2 and 98% humidity. For the experiments, cells were harvested from subconfluent cultures using trypsin and resuspended in fresh medium before plating.
(§4) Cells are seeded in 96 well microtiter plates, at 5×10^3 cells per well in aliquots of 195 μL medium, and they are allowed to attach to the plate surface by growing in drug free medium for 18 hours. Afterward, samples are added in aliquots of 5 μL in a ranging from 10 to 10^−8 μg/mL, dissolved in DMSO:EtOH:PBS (0.5:0.5:99). After 48 hours exposure, the antitumor effect are measured by the SRB methodology: cells are fixed by adding 50 μL of cold 50% (wt/vol) trichloroacetic acid (TCA) and incubating for 60 minutes at 4° C. Plates are washed with deionized water and dried. One hundred μL of SRB solution (0.4% wt/vol in 1% acetic acid) is added to each microtiter well and incubated for 10 minutes at room temperature. Unbound SRB is removed by washing with 1% acetic acid. Plates are air dried and bound stain is solubilized with Tris buffer. Optical densities are read on a automated spectrophotometric plate reader at a single wavelength of 490 nm.
(§5) The values for mean+/− SD of data from triplicate wells are calculated. Some parameters for cellular responses can be calculated: GI=growth inhibition, TGI=total growth inhibition (cytostatic effect) and LC=cell killing (cytotoxic effect).

HT-29 = assay: SRB colorimetric assay of cell growth and viability, HT-29; conditions: 48 hours exposure; for GI50: read-out: GI50 HT-29; for CC50: read-out: LC50 HT-29
Text: as §1, §2, §3, §4, §5

SK-MEL-28 = assay: SRB colorimetric assay of cell growth and viability, SK-MEL-28; conditions: 48 hours exposure; for CC50: read-out: LC50 MEL-28
Text: as §1, §2, §3, §4, §5

LoVo = assay: SRB colorimetric assay of cell growth and viability, LoVo; conditions: 48 hours exposure; for CC50: read-out: LC50 LOVO
Text: as §1, §2, §3, §4, §5

LoVo-Dox = assay: SRB colorimetric assay of cell growth and viability, LoVo-Dox; conditions: 48 hours exposure; for CC50: read-out: LC50 LOVO-DOX
Text: as §1
A colorimetric type of assay, using sulforhodamine B (SRB) reaction has been adapted for a quantitative measurement of cell growth and viability [following the technique described by Philip Skehan, et al. (1990), New colorimetric cytotoxicity assay for anticancer drug screening, J. Natl. Cancer Inst., 82:1107-1112].
as §2, §3, §4, §5

DU-145 = assay: SRB colorimetric assay of cell growth and viability, DU-145; conditions: 48 hours exposure
Text: as §1, §2, §3, §4, §5

IGROV-1 = assay: SRB colorimetric assay of cell growth and viability, IGROV-1; conditions: 48 hours exposure
Text: as §1, §2, §3, §4, §5

IGROV-ET = assay: SRB colorimetric assay of cell growth and viability, IGROV-ET; conditions: 48 hours exposure; for CC50: read-out: LC50 IGROV-ET
Text: as §1, §2, §3, §4, §5

HeLa = assay: SRB colorimetric assay of cell growth and viability, HeLa; conditions: 48 hours exposure; for CC50: read-out: LC50 HELA
Text: as §1, §2, §3, §4, §5

HeLa-APL = assay: SRB colorimetric assay of cell growth and viability, HeLa-APL; conditions: 48 hours exposure; for CC50: read-out: LC50 HELA-APL
Text: as §1, §2, §3, §4, §5

K-562 = assay: SRB colorimetric assay of cell growth and viability, K-562; conditions: 48 hours exposure; for CC50: read-out: LC50 K-562
Text: as §1, §2, §3, §4, §5

PANC-1 = assay: SRB colorimetric assay of cell growth and viability, PANC-1; conditions: 48 hours exposure; for CC50: read-out: LC50 PANC-1
Text: as §1, §2, §3, §4, §5

Row | SMILES | TGI A-549 (A-549) [Molar] | GI50 (A-549) [µM] | CC50 (A-549) [µM] | TGI HT-29 (HT-29) [Molar] | GI50 (HT-29) [µM] | CC50 (HT-29) [µM] | GI50 (SK-MEL-28) [µM] | TGI MEL-28 (SK-MEL-28) [Molar] | CC50 (SK-MEL-28) [µM] | GI50 (LoVo) [µM] | TGI LOVO (LoVo) [Molar] | CC50 (LoVo) [µM] | GI50 (LoVo-Dox) [µM] | TGI LOVO-DOX (LoVo-Dox) [Molar] | CC50 (LoVo-Dox) [µM] | GI50 (DU-145) [µM] | LC50 (concentration causing 50% net cell kill) (DU-145) [µM] | TGI DU-145 (DU-145) [Molar] | TGI A-549 (A-549; SRB) [Molar] | TGI HT-29 (HT-29; SRB) [Molar] | other results
1 | C/C=C1\NC(=O)[C@H](Cc2ccccc2)NC(=O)[C@@H](C(C)C)NC(=O)[C@@H]([C@@H](C)CC)NC(=O)[C@H](NC(=O)[C@H](NC(=O)[C@H](CCCN)NC(=O)[C@H]2CCCN2C(=O)[C@H](NC(=O)[C@@H](NC(=O)[C@@H](NC(=O)[C@H](NC(=O)c2ccc3c(c2)OCO3)C(C)C)[C@@H](C)O)C(C)C)C(C)C)[C@@H](C)CC)[C@@H](C)OC(=O)[C@H](C(C)C)NC1=O [Compound 23, [Pipe^14]-KF] | 1.98E−06 | 0.661 | 4.62 | 3.30E−07 | 0.132 | 0.528 |  |  |  |  |  |  |  |  |  |  |  |  |  |  | 
2 | C/C=C1\NC(=O)[C@H](Cc2ccccc2)NC(=O)[C@@H](C(C)C)NC(=O)[C@@H]([C@@H](C)CC)NC(=O)[C@H](NC(=O)[C@H](NC(=O)[C@H](CCCN)NC(=O)[C@H]2CCCN2C(=O)[C@H](NC(=O)[C@@H](NC(=O)[C@@H](NC(=O)CNC(=O)CCCC(C)C)[C@@H](C)O)C(C)C)C(C)C)[C@@H](C)CC)[C@@H](C)OC(=O)[C@H](C(C)C)NC1=O [Compound 33, [Gly^13]-KF] | 3.08E−06 | 0.982 | 6.96 | 6.96E−06 | 4.51 | 6.96 | 6.32 | 6.96E−06 | 6.96 | 3.99 | 6.96E−06 | 6.96 | 4.85 | 6.96E−06 | 6.96 | 6.96 | 6.96 | 6.96E−06 |  |  | GI50 (IGROV-1): 6.96 µM; LC50 (concentration causing 50% net cell killing) (IGROV-1): 6.96 µM; TGI IGROV (IGROV-1): 6.96E−06 Molar; GI50 (IGROV-ET): 5.27 µM; TGI IGROV-ET (IGROV-ET): 6.96E−06 Molar; CC50 (IGROV-ET): 6.96 µM; GI50 (HeLa): 0.954 µM; TGI HELA (HeLa): 3.22E−06 Molar; CC50 (HeLa): 6.96 µM; GI50 (HeLa-APL): 6.96 µM; TGI HELA-APL (HeLa-APL): 6.96E−06 Molar; CC50 (HeLa-APL): 6.96 µM; GI50 (K-562): 6.96 µM; TGI K-562 (K-562): 6.96E−06 Molar; CC50 (K-562): 6.96 µM; GI50 (PANC-1): 0.385 µM; TGI PANC-1 (PANC-1): 1.70E−06 Molar; CC50 (PANC-1): 5.04 µM
3 | C/C=C1\NC(=O)[C@H](Cc2ccccc2)NC(=O)[C@@H](C(C)C)NC(=O)[C@@H]([C@@H](C)CC)NC(=O)[C@H](NC(=O)[C@H](NC(=O)[C@H](CCCN)NC(=O)[C@H]2CCCN2C(=O)[C@H](NC(=O)[C@@H](NC(=O)[C@@H](NC(=O)[C@@H](C)NC(=O)CCCC(C)C)[C@@H](C)O)C(C)C)C(C)C)[C@@H](C)CC)[C@@H](C)OC(=O)[C@H](C(C)C)NC1=O [Compound 34, [D-Ala^13]-KF] | 3.20E−06 | 1.98 | 5.17 | 2.32E−06 | 1.25 | 4.3 | 1.81 | 3.01E−06 | 5 | 0.904 | 1.77E−06 | 2.98 | 0.35 | 9.73E−07 | 2.48 | 2.21 | 4.79 | 3.26E−06 |  |  | GI50 (IGROV-1): 1.41 µM; LC50 (concentration causing 50% net cell killing) (IGROV-1): 4.03 µM; TGI IGROV (IGROV-1): 2.38E−06 Molar; GI50 (IGROV-ET): 1.58 µM; TGI IGROV-ET (IGROV-ET): 2.56E−06 Molar; CC50 (IGROV-ET): 4.14 µM; GI50 (HeLa): 1.46 µM; TGI HELA (HeLa): 2.43E−06 Molar; CC50 (HeLa): 4.06 µM; GI50 (HeLa-APL): 1.59 µM; TGI HELA-APL (HeLa-APL): 2.63E−06 Molar; CC50 (HeLa-APL): 4.34 µM; GI50 (K-562): 1.34 µM; TGI K-562 (K-562): 2.66E−06 Molar; CC50 (K-562): 5.25 µM; GI50 (PANC-1): 1.28 µM; TGI PANC-1 (PANC-1): 2.58E−06 Molar; CC50 (PANC-1): 5.21 µM
4 | C/C=C1\NC(=O)[C@H](Cc2ccccc2)NC(=O)[C@@H](C(C)C)NC(=O)[C@@H]([C@@H](C)CC)NC(=O)[C@H](NC(=O)[C@H](NC(=O)[C@H](CCCN=C(N(C)C)N(C)C)NC(=O)[C@H]2CCCN2C(=O)[C@H](NC(=O)[C@@H](NC(=O)[C@@H](NC(=O)[C@H](NC(=O)CCCC(C)C)C(C)C)[C@@H](C)O)C(C)C)C(C)C)[C@@H](C)CC)[C@@H](C)OC(=O)[C@H](C(C)C)NC1=O [Compound 89, [N(Me)2,N′(Me)2-Arg^8]-Kahalalide F] ({Hexanoyl(5-Me)}-[dV]TV[dV][dP][X1][d(aIle)][d(aThr)][d(aIle)][dV]F[Dhb]V; ester 8-C) |  |  |  |  |  |  |  |  |  |  |  |  |  |  |  |  |  |  | 4.44E−07 | 3.17E−07 | GI50 (A-549; SRB): 0.317 µM; CC50 (A-549; SRB): 0.635 µM; GI50 (HT-29; SRB): 0.0635 µM; CC50 (HT-29; SRB): 0.571 µM
5 | C/C=C1\NC(=O)[C@H](Cc2ccccc2)NC(=O)[C@@H](C(C)C)NC(=O)[C@@H]([C@@H](C)CC)NC(=O)[C@H](NC(=O)[C@H](NC(=O)[C@H](CCCN=C(N(C)C)N(C)c2ccccc2)NC(=O)[C@H]2CCCN2C(=O)[C@H](NC(=O)[C@@H](NC(=O)[C@@H](NC(=O)[C@H](NC(=O)CCCC(C)C)C(C)C)[C@@H](C)O)C(C)C)C(C)C)[C@@H](C)CC)[C@@H](C)OC(=O)[C@H](C(C)C)NC1=O [Compound 90, [N(Me,Ph),N′(ME)2-Arg^8]-Kahalalide F] ({Hexanoyl(5-Me)}-[dV]TV[dV][dP][X3][d(aIle)][d(aThr)][d(aIle)][dV]F[Dhb]V; ester 8-C) |  |  |  |  |  |  |  |  |  |  |  |  |  |  |  |  |  |  | 4.27E−07 | 3.05E−07 | 
6 | C/C=C1\NC(=O)[C@H](Cc2ccccc2)NC(=O)[C@@H](C(C)C)NC(=O)[C@@H]([C@@H](C)CC)NC(=O)[C@H](NC(=O)[C@H](NC(=O)[C@H](CCCN=C(N(C)C)N2CCCC2)NC(=O)[C@H]2CCCN2C(=O)[C@H](NC(=O)[C@@H](NC(=O)[C@@H](NC(=O)[C@H](NC(=O)CCCC(C)C)C(C)C)[C@@H](C)O)C(C)C)C(C)C)[C@@H](C)CC)[C@@H](C)OC(=O)[C@H](C(C)C)NC1=O [Compound 91, [N(CH2)4,N′(Me)2-Arg^8]-Kahalalide F] ({Hexanoyl(5-Me)}-[dV]TV[dV][dP][X2][d(aIle)][d(aThr)][d(aIle)][dV]F[Dhb]V; ester 8-C) |  |  |  |  |  |  |  |  |  |  |  |  |  |  |  |  |  |  | 4.37E−07 | 3.12E−07 | GI50 (A-549; SRB): 0.312 µM; CC50 (A-549; SRB): 0.624 µM; GI50 (HT-29; SRB): 0.0624 µM; CC50 (HT-29; SRB): 0.562 µM
